Laboratory results reported in ChEMBL document CHEMBL3046395, “Synthesis and pharmacological investigation of novel 3-(benzyl)-2-substituted amino-3H-quinazolin-4-ones as analgesic and anti-inflammatory agents” (Med Chem Res, 2008).

Tests used:
Mus musculus [1] = experiment: Analgesic activity in Mus musculus Wistar albino (mouse) at 10 mg/kg, po after 3 hr by tail-flick test (reference value: 4 +/- 0.91%); assay type: functional
Mus musculus [2] = experiment: Analgesic activity in Mus musculus Wistar albino (mouse) at 10 mg/kg, po after 2 hr by tail-flick test (reference value: 4 +/- 0.59%); assay type: functional
Rattus norvegicus [3] = experiment: Anti-inflammatory activity in Rattus norvegicus (rat) assessed as inhibition of carrageenan-induced paw edema at 10 mg/kg, po measured at 1 hr post carrageenan-challenge (reference value: 6.1 +/- 0.27%); assay type: functional
Rattus norvegicus [4] = experiment: Anti-inflammatory activity in Rattus norvegicus (rat) assessed as inhibition of carrageenan-induced paw edema at 20 mg/kg, po measured at 3 hr post carrageenan-challenge (reference value: 3.2 +/- 0.93%); assay type: functional
Rattus norvegicus [5] = experiment: Gastrointestinal toxicity in Rattus norvegicus Wistar albino (rat) assessed as ulcer index at 20 mg/kg, ip administered QD for 3 days measured on day 4 (reference value: 0.15 +/- 0.32); assay type: organism-based; set-up: dose 20 mg/kg, route intraperitoneal; details: in vivo, 72 h
Rattus norvegicus [6] = experiment: Anti-inflammatory activity in Rattus norvegicus (rat) assessed as inhibition of carrageenan-induced paw edema at 10 mg/kg, po measured at 30 min post carrageenan-challenge (reference value: 5.1 +/- 0.29%); assay type: functional; details: 0.5 h
Mus musculus [7] = experiment: Analgesic activity in Mus musculus Wistar albino (mouse) at 20 mg/kg, po after 30 min by tail-flick test (reference value: 2 +/- 0.35%); assay type: functional
Rattus norvegicus [8] = experiment: Anti-inflammatory activity in Rattus norvegicus (rat) assessed as inhibition of carrageenan-induced paw edema at 10 mg/kg, po measured at 2 hr post carrageenan-challenge (reference value: 5.7+/- 0.32%); assay type: functional
Mus musculus [9] = experiment: Analgesic activity in Mus musculus Wistar albino (mouse) at 10 mg/kg, po after 30 min by tail-flick test (reference value: 2 +/- 0.35%); assay type: functional
Rattus norvegicus [10] = experiment: Anti-inflammatory activity in Rattus norvegicus (rat) assessed as inhibition of carrageenan-induced paw edema at 20 mg/kg, po measured at 1 hr post carrageenan-challenge (reference value: 6.1 +/- 0.27%); assay type: functional
Rattus norvegicus [11] = experiment: Anti-inflammatory activity in Rattus norvegicus (rat) assessed as inhibition of carrageenan-induced paw edema at 10 mg/kg, po measured at 3 hr post carrageenan-challenge (reference value: 3.2 +/- 0.93%); assay type: functional
Rattus norvegicus [12] = experiment: Anti-inflammatory activity in Rattus norvegicus (rat) assessed as inhibition of carrageenan-induced paw edema at 20 mg/kg, po measured at 2 hr post carrageenan-challenge (reference value: 5.7+/- 0.32%); assay type: functional
Mus musculus [13] = experiment: Analgesic activity in Mus musculus Wistar albino (mouse) at 20 mg/kg, po after 2 hr by tail-flick test (reference value: 4 +/- 0.59%); assay type: functional
Mus musculus [14] = experiment: Analgesic activity in Mus musculus Wistar albino (mouse) at 10 mg/kg, po after 1 hr by tail-flick test (reference value: 6 +/- 0.49%); assay type: functional
Mus musculus [15] = experiment: Analgesic activity in Mus musculus Wistar albino (mouse) at 20 mg/kg, po after 3 hr by tail-flick test (reference value: 4 +/- 0.91%); assay type: functional
Mus musculus [16] = experiment: Analgesic activity in Mus musculus Wistar albino (mouse) at 20 mg/kg, po after 1 hr by tail-flick test (reference value: 6 +/- 0.49%); assay type: functional
Rattus norvegicus [17] = experiment: Anti-inflammatory activity in Rattus norvegicus (rat) assessed as inhibition of carrageenan-induced paw edema at 20 mg/kg, po measured at 30 min post carrageenan-challenge (reference value: 5.1 +/- 0.29%); assay type: functional; details: 0.5 h

Row | SMILES | Activity (Mus musculus [1]) | Activity (Mus musculus [2]) | inhibition in vivo at 10 mg/kg (Rattus norvegicus [3]) | inhibition in vivo at 20 mg/kg (Rattus norvegicus [4]) | UI (Rattus norvegicus [5]) | inhibition in vivo at 10 mg/kg (Rattus norvegicus [6]) | Activity (Mus musculus [7]) | inhibition in vivo at 10 mg/kg (Rattus norvegicus [8]) | Activity (Mus musculus [9]) | inhibition in vivo at 20 mg/kg (Rattus norvegicus [10]) | inhibition in vivo at 10 mg/kg (Rattus norvegicus [11]) | inhibition in vivo at 20 mg/kg (Rattus norvegicus [12]) | Activity (Mus musculus [13]) | Activity (Mus musculus [14]) | Activity (Mus musculus [15]) | Activity (Mus musculus [16]) | inhibition in vivo at 20 mg/kg (Rattus norvegicus [17])
1 | O=C1Nc2ccccc2/C1=N\Nc1nc2ccccc2c(=O)n1Cc1ccccc1 | 30% | 48% | 38% | 32% | 0.62 | 36% | 52% | 42% | 45% | 45% | 25% | 51% | 61% | 46% | 35% | 57% | 40%
2 | O=c1c2ccccc2nc(N/N=C/c2ccccc2)n1Cc1ccccc1 | 31% | 48% | 39% | 35% | 0.64 | 35% | 51% | 40% | 45% | 45% | 27% | 47% | 59% | 48% | 41% | 59% | 41%
3 | O=c1c2ccccc2nc(N/N=C/c2ccccc2[N+](=O)[O-])n1Cc1ccccc1 | 32% | 46% | 36% | 28% | 0.87 | 30% | 49% | 38% | 37% | 43% | 21% | 47% | 57% | 44% | 38% | 56% | 43%
4 | Cc1ccc(/C=N/Nc2nc3ccccc3c(=O)n2Cc2ccccc2)cc1 | 35% | 54% | 38% | 38% | 0.65 | 38% | 58% | 42% | 47% | 49% | 29% | 53% | 61% | 49% | 40% | 59% | 46%
5 | COc1ccc(/C=N/Nc2nc3ccccc3c(=O)n2Cc2ccccc2)cc1 | 32% | 44% | 30% | 30% | 0.83 | 28% | 49% | 37% | 39% | 40% | 25% | 44% | 56% | 40% | 37% | 52% | 35%
6 | CCC/C(C)=N/Nc1nc2ccccc2c(=O)n1Cc1ccccc1 | 40% | 67% | 51% | 39% | 0.48 | 47% | 67% | 53% | 58% | 65% | 30% | 67% | 79% | 60% | 48% | 77% | 58%
7 | O=C([O-])Cc1ccccc1Nc1c(Cl)cccc1Cl.[Na+] [DICLOFENAC SODIUM] | 33% | 45% | 38% | 42% | 1.65 | 32% | 46% | 39% | 37% | 52% | 33% | 60% | 62% | 43% | 39% | 55% | 45%
8 | O=c1c2ccccc2nc(N/N=C/c2ccc([N+](=O)[O-])cc2)n1Cc1ccccc1 | 34% | 42% | 31% | 31% | 0.82 | 31% | 46% | 37% | 38% | 45% | 24% | 49% | 54% | 42% | 39% | 48% | 42%
9 | O=c1c2ccccc2nc(N/N=C/c2ccc(Cl)cc2)n1Cc1ccccc1 | 30% | 47% | 36% | 29% | 0.89 | 34% | 49% | 36% | 38% | 44% | 23% | 49% | 54% | 36% | 36% | 51% | 40%
10 | O=c1c2ccccc2nc(NN=C(c2ccccc2)c2ccccc2)n1Cc1ccccc1 | 33% | 49% | 41% | 35% | 0.63 | 36% | 55% | 43% | 46% | 50% | 27% | 52% | 59% | 49% | 41% | 58% | 47%
11 | O=c1c2ccccc2nc(N/N=C/c2ccccc2Cl)n1Cc1ccccc1 | 29% | 41% | 32% | 31% | 0.86 | 30% | 46% | 35% | 34% | 38% | 26% | 42% | 53% | 37% | 35% | 49% | 38%
